In patent publication US12370197B2, “Combination product of a Bcl-2/Bcl-xL inhibitor and a chemotherapeutic agent and use thereof in the prevention and/or treatment of diseases” (ASCENTAGE PHARMA (SUZHOU) CO., LTD., priority 2019, dated 2025):
“And” between values parts separate entries of the source, which are not always exact repeats. Equal entries are not always repeated. “Also recorded” adds a separate entry of the source.

Legend:
MV-4-11 AML xenograft = test: human MV-4-11 AML xenograft model in mice; format: in vivo, mouse; details: for mRECIST: MV-4-11 xenograft, animals with response / animals in group; for RTV (D22) (Mean ± SEM) / T/C (%) (D22): female BALB/c Nude mice, s.c. MV-4-11, Compound 6 or ABT-199 50 mg/kg oral once daily 21 days, HHT 1 mg/kg i.p. once daily 14 days, day 22
Method: Treatment was initiated on the day of grouping (Day 1). […] HHT was intraperitoneally administered once daily for consecutive 14 days. The tumor sizes (caliper) and animal body weights were measured twice a week.

OCI-AML-3 AML xenograft = test: human OCI-AML-3 AML xenograft model in mice; format: in vivo, mouse; details: female NOD SCID mice, s.c. OCI-AML-3; Compound 6 50 mg/kg oral once daily 14 days; HHT 0.75 mg/kg i.p. once daily 7 days from D2; day 15
Method: Treatment was initiated on the grouping day (D1). […] HHT was intraperitoneally injected once daily from D2 and continued for consecutive 7 days. The tumor sizes (caliper) and animal body weights were measured twice a week.

SKM-1 cells = test: CellTiter-Glo luminometric cell viability assay (CTG), SKM-1; format: cell-based
Method: (§1) In the antiproliferative tests, cells were plated in 96-well plates (Corning, Cat. 3903) at 10000 cells/well/cell line. In the apoptosis assay, cells were plated in 24-well plates (Corning, Cat. 3524) at 200000 cells/well/cell line.
(§2) For combination tests, the results were further analyzed using the CalcuSyn program to calculate a Combination Index (CI) (Chou, T. C. (2010) “Drug combination studies and their synergy quantification using the Chou-Talalay method.”, Cancer Res 70(2): 440-446). […]
(§3) The anti-proliferation effects of the test sample in three AML/MDS cell lines, namely MV-4-11 (Compound 6 sensitive cell line), OCI-AML-3 (Compound 6 non-sensitive cell line) and SKM-1 (Compound 6 non-sensitive cell line), were determined by quantifying ATP using CellTiter-Glo luminescence cell viability detection kits, according to the manufacturer's instructions.
(§4) First, cells in the logarithmic growth phase were collected, centrifuged, and the cell suspension was counted and diluted/adjusted to the desired concentration. […] More than 3 blank control wells containing only medium (100 μL/well) without cells were set on the same plate to obtain background luminescence, and cell control wells, i.e., wells containing cells but treated with vehicle control, were set. […]
(§5) Luminescence signals were detected using a Biotek synergy H1 microplate reader. […]

OCI-AML-3 cells [1] = test: Annexin V-PI apoptosis flow cytometry, OCI-AML-3; format: cell-based, human; details: 24 h, Compound 6 10 nM, HHT 30 nM, alone or combined
Method: as §1
[Experimental Methods]: Flow Cytometer Analysis
Cells were harvested after 24 hours of treatment with Compound 6 alone, HHT alone, or the combination of both, and washed once with phosphate buffered saline (PBS). Cells were stained with Annexin-V and PI and analyzed using an Attune NxT flow cytometer. Apoptosis profiles were obtained by analyzing 20000 cells per experimental condition.
Apoptosis was detected using Annexin V-PI (propidium iodide) staining kit according to the manufacturer's instructions. After treating the cells MV-4-11, OCI-AML-3 and SKM-1 with 10 nM Compound 6 alone, 10 nM or 30 nM HHT alone or the combination of both for 24 hours, the cells were harvested and washed once with PBS. Cells were bi-color stained with Annenix V-FITC and PI. After staining was complete, analysis was performed using an Attune NxT flow cytometer. Apoptosis profiles were obtained by analyzing 20000 cells per experimental condition.

MV-4-11 cells = test: CellTiter-Glo luminometric cell viability assay (CTG), MV-4-11; format: cell-based, human
Method: as §1, §2, §3, §4, §5

OCI-AML-3 cells [2] = test: CellTiter-Glo luminometric cell viability assay (CTG), OCI-AML-3; format: cell-based, human
Method: as §1, §2, §3, §4, §5

MCL-1 = test: Western Blot assay, MCL-1; format: cell-based, human; details: MV-4-11, OCI-AML-3 and SKM-1 cells, 4 h; 10 nM Compound 6, 10 nM or 30 nM HHT
Method: [Experimental Methods]: Western Blot Assay
Western Blot assay was performed after 4 hours treatment of cells in logarithmic growth phase with Compound 6, HHT, either alone or in combination.
After 4 hours of interaction with 10 nM Compound 6 in combination with 10 nM or 30 nM HHT, cells were harvested and washed once with pre-cooled PBS. The cell pellets were lysed using RIPA lysate containing 1% PMSF and 1% protease inhibitor. The protein concentration was detected by using a BCA protein concentration detection kit. Cell lysates (20-50 μg) were separated by 4-20% SDS-PAGE. The separated proteins were transferred to PVDF membranes which were blocked using 1% BSA (bovine serum albumin) buffer at room temperature for 1 hours before incubated in a shaker at 4° C. overnight with primary antibody diluted in 1×TBST (Tris-Buffered Saline Tween-20) containing 1% BSA. The membranes were washed 3 times with 1×TBST each for 10 minutes, and then were incubated for 1 hour at room temperature using horseradish peroxidase (HRP)-tagged secondary antibodies (goat anti-rabbit-HRP (Yeasen, Cat. #33101ES60) and goat anti-mouse-HRP (Yeasen, Cat. #33201ES60), diluted according to the manufacturer's instructions). The membranes were washed 3 times with 1×TBST each for 10 minutes. HRP substrate was added onto the PVDF membrane. […]

| SMILES | mRECIST (MV-4-11 AML xenograft) | RTV (D22) (Mean ± SEM) (MV-4-11 AML xenograft) | T/C (%) (D22) (MV-4-11 AML xenograft) | RTV(D15) (Mean ± SEM) (OCI-AML-3 AML xenograft) | T/C (%) (D15) (OCI-AML-3 AML xenograft) | sensitivity of the cell line to Compound 6 (SKM-1 cells) | apoptosis (Annexin V+ cells) (OCI-AML-3 cells [1]) [%] | sensitivity of the cell line to Compound 6 (MV-4-11 cells) | sensitivity of the cell line to Compound 6 (OCI-AML-3 cells [2]) | expression level of anti-apoptosis protein MCL-1 (MCL-1) |
| --- | --- | --- | --- | --- | --- | --- | --- | --- | --- | --- |
| CC1(C)CCC(CN2CCN(c3ccc(C(=O)NS(=O)(=O)c4ccc(NCC5CCOCC5)c([N+](=O)[O-])c4)c(Oc4cnc5[nH]ccc5c4)c3)CC2)=C(c2ccc(Cl)cc2)C1 [ABT-199] | no CR or PR and 6/6 PD | 11.77 ± 1.94 | 88.27 | – | – | – | – | – | – | – |
| O=C(NS(=O)(=O)c1ccc(NC[C@H]2COCCO2)c([N+](=O)[O-])c1)c1ccc(N2CCN(CC3=C(c4ccc(Cl)cc4)CC4(CCC4)CC3)CC2)cc1Oc1cnc2[nH]ccc2c1 [Compound 6, (S)-N-((4-(((1,4-dioxan-2-yl)methyl)amino)-3-nitrophenyl)sulfonyl)-2-((1H-pyrrolo[2,3-b]pyridin-5-yl)oxy)-4-(4-((6-(4-chlorophenyl)spiro[3.5]non-6-en-7-yl)methyl)piperazin-1-yl)benzamide] | no CR or PR and 6/6 PD | 8.36 ± 0.76 | 62.76 | 12.77 ± 1.51 | 61.36 | non-sensitive | 12.1 | sensitive; also recorded: moderate sensitivity | non-sensitive | – |
| COC(=O)C[C@](O)(CCCC(C)(C)O)C(=O)O[C@@H]1C(OC)=C[C@]23CCCN2CCc2cc4c(cc2[C@H]13)OCO4 [HHT, homoharringtonine] | 3/5 SD and 3/5 SD, 2/5 PD | 4.32 ± 1.42 | 32.43 | 13.89 ± 0.82 | 66.77 | – | 25.0 | – | – | reduce the expression level |
